According to patent publication US11111243B2, “Azaindole compounds as histone methyltransferase inhibitors” (GLOBAL BLOOD THERAPEUTICS, INC., priority 2017, dated 2021):
Counter-ions that a name gives are not always drawn.

Target: T1, G9a (Homo sapiens, UniProt Q96KQ7)
T1 sequence (Q96KQ7 1-1210): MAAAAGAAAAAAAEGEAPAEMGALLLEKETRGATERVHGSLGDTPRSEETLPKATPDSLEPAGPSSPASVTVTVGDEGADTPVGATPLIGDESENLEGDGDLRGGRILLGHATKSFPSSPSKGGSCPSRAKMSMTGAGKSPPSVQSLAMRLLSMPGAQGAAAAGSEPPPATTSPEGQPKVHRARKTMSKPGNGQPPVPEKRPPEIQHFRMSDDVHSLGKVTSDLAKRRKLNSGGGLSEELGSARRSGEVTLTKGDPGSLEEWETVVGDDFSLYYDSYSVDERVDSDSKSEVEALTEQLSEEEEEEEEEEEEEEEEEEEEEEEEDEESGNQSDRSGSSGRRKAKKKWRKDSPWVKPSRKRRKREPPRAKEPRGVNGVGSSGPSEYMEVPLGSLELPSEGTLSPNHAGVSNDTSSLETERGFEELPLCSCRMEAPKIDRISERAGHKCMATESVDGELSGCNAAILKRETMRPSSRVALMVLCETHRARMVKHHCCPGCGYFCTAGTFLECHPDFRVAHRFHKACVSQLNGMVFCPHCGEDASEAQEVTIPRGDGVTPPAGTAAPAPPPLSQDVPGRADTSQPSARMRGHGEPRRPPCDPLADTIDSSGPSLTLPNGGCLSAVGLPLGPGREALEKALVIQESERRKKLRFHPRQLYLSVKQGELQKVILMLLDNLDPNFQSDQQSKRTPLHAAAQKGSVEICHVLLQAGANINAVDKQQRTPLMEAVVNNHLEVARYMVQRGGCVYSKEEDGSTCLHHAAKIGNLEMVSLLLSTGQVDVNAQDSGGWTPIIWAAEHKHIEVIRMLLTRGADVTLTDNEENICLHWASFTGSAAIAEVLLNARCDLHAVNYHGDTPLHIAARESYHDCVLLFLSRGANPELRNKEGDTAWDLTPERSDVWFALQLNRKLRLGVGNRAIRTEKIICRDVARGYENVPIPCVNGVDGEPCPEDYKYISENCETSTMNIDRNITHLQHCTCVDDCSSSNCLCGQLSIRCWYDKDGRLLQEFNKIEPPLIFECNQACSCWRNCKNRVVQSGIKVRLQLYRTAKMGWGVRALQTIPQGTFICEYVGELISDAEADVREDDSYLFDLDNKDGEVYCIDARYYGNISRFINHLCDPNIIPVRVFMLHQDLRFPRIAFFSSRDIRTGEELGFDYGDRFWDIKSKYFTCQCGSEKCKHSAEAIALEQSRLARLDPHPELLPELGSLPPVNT
Experiment: G9a AlphaLISA enzymatic activity assay
Type: biochemical
Conditions: 0.15 nM G9a, 10 uM S-adenosyl-methionine, 100 nM biotinylated histone 3 peptide (1-21), 1 h room temperature
Text: The G9a AlphaLISA assay was used to detect the methyl modifications of a biotinylated histone H3 peptide by the compounds. These modifications are done by the histone methyl transferase activity of the G9a enzyme. The assay consists of reading a chemiluminescent signal at 615 nm; this signal is generated by a laser excitation at 680 nm that transfers a reactive singlet oxygen between the donor beads and acceptor beads. Donor beads are streptavidin conjugated and bind to the biotin on the peptide. Acceptor beads are conjugated with an antibody that recognizes the specific G9a methyl mark on the peptide. If there is a methyl mark on the peptide, the acceptor beads will bind to the peptide. Upon binding, the acceptor beads will be in close proximity (<200 nm) of the donor beads and when the donor beads are excited, the transfer of the oxygen can occur and a strong signal will be generated. If there is no methyl mark, the interaction between beads will not occur and signal will be at background levels.
For the assay, the following buffer was used to set up reactions: 50 mM Tris-HCl pH9, 50 mM NaCl, 0.01% Tween-20 and 1 mM DTT (added fresh prior to starting the reactions). The assay is set up by adding a final concentration of 0.15 nM G9a, 10 uM S-adenosyl-methionine and, 100 nM biotinylated histone 3 peptide (1-21). The reaction is incubated at room temperature for 1 h, and subsequently quenched by the addition of the acceptor beads (anti-H3k9me2 AlphaLISA acceptor beads, PerkinElmer #AL117) at a final concentration of 20 ug/mL. The acceptor beads are incubated for 1 h. After 1 h, the donor beads are added at a final concentration of 20 ug/mL (Alpha Streptavidin donor beads, PerkinElmer #6760002). Donor beads are incubated for 0.5 h. Both donor and acceptor beads are resuspended in AlphaLISA 5× Epigenetics Buffer 1 Kit (PerkinElmer #AL008) prior to addition to the reaction. All manipulations and incubations with the donor and acceptor beads are done in subdued light. Signal is detected in an EnVision plate reader in Alpha mode (See ACS Med Chem Lett. 2014 Jan. 2; 5(2):205-9)
Percent inhibition was calculated for each compound dilution and the concentration that produced 50% inhibition was calculated. This value is presented as the IC50.

SMILES | IC50
COc1cc2c(cc1OCCCN1CCCC1)[nH]c1ccnc(OC(C)C)c12 [Compound 75, 1-(3-{[8-methoxy-1-(propan-2-yloxy)-5H-pyrido[4,3-b]indol-7-yl]oxy}propyl)pyrrolidine trifluoroacetate] | 1000 nM
COc1cc2c(cc1OCCCN1CCCC1)[nH]c1ccnc(-n3cccn3)c12 [Compound 77, 1-[8-methoxy-7-[3-(pyrrolidin-1-yl)propoxy]-5H-pyrido[4,3-b]indol-1-yl]-1H-pyrazole trifluoroacetate] | 2500 nM
COc1cc2c(cc1OCCCN1CCCC1)[nH]c1ccnc(-c3cncs3)c12 [Compound 78, 5-{8-methoxy-7-[3-(pyrrolidin-1-yl)propoxy]-5H-pyrido[4,3-b]indol-1-yl}-1,3-thiazole trifluoroacetate] | 260 nM
COc1cc2c(cc1OCCCN1CCCC1)[nH]c1ccnc(CO)c12 [Compound 82, 8-methoxy-7-[3-(pyrrolidin-1-yl)propoxy]-5H-pyrido[4,3-b]indol-1-yl]methanol trifluoroacetate] | 4.5 nM
COc1cc2c(cc1OCCCN1CCCC1)[nH]c1ccnc(-c3cnc[nH]3)c12 [Compound 84, 1-(1H-imidazol-5-yl)-8-methoxy-7-(3-(pyrrolidin-1-yl)propoxy)-5H-pyrido[4,3-b]indole trifluoroacetate] | 17 nM
COc1cc2c(cc1OCCCN(C)C)[nH]c1ccncc12 [Compound 88, [3-({8-methoxy-5H-pyrido[4,3-b]indol-7-yl}oxy)propyl]dimethylamine hydrochloride] | 12 nM
COc1cc2c(cc1OCCCN1CCCC1)[nH]c1c(C)cnc(N3CCCC3)c12 [Compound 89, 1-{8-methoxy-4-methyl-7-[3-(pyrrolidin-1-yl)propoxy]-5H-pyrido[4,3-b]indol-1-yl}pyrrolidine hydrochloride] | 12 nM
COc1cc2c(cc1OCCCN(C)C)[nH]c1ccnc(C)c12 [Compound 90, [3-({8-methoxy-1-methyl-5H-pyrido[4,3-b]indol-7-yl}oxy)propyl]dimethylamine hydrochloride] | 7.1 nM
CCc1nccc2[nH]c3cc(OCCCN(C)C)c(OC)cc3c12 [Compound 91, [3-({1-ethyl-8-methoxy-5H-pyrido[4,3-b]indol-7-yl}oxy)propyl]dimethylamine hydrochloride] | 6.7 nM
COCCOc1nccc2[nH]c3cc(OCCCN4CCCC4)c(OC)cc3c12 [Compound 96, 1-(3-{[8-methoxy-1-(2-methoxyethoxy)-5H-pyrido[4,3-b]indol-7-yl]oxy}propyl)pyrrolidine trifluoroacetate] | 3300 nM
COc1cc2c(cc1OCCCN1CCCC1)[nH]c1ccnc(O)c12 [Compound 97, 8-methoxy-7-(3-(pyrrolidin-1-yl)propoxy)-5H-pyrido[4,3-b]indol-1-ol trifluoroacetate] | 68 nM
COc1cc2c(cc1OCCCN1CCCC1)[nH]c1cc(C)ncc12 [Compound 99, 1-[3-({8-methoxy-3-methyl-5H-pyrido[4,3-b]indol-7-yl}oxy)propyl]pyrrolidine hydrochloride] | 16 nM
COc1cc2c(cc1OCCCN1CCCC1)[nH]c1ccnc(OC)c12 [Compound 100, 1-[3-({1,8-dimethoxy-5H-pyrido[4,3-b]indol-7-yl}oxy)propyl]pyrrolidine hydrochloride] | 380 nM

Second part, the molecule after the results:

IC50 | SMILES
960 nM | COc1cc2c(cc1OCCCN1CCCC1)[nH]c1ccnc(OC3CCOCC3)c12 [Compound 73, 1-(3-{[8-methoxy-1-(oxan-4-yloxy)-5H-pyrido[4,3-b]indol-7-yl]oxy}propyl)pyrrolidine trifluoroacetate]
6.7 nM | COc1cc2c(cc1OCCCN1CCCC1)[nH]c1ccnc(OC3CCNC3)c12 (stereo not drawn) [Compound 74, 3-({8-methoxy-7-[3-(pyrrolidin-1-yl)propoxy]-5H-pyrido[4,3-b]indol-1-yl}oxy)pyrrolidine bis(2,2,2-trifluoroacetate)]
960 nM | COc1cc2c(cc1OCCCN1CCCC1)[nH]c1ccnc(-n3ccnc3)c12 [Compound 76, 1-{8-methoxy-7-[3-(pyrrolidin-1-yl)propoxy]-5H-pyrido[4,3-b]indol-1-yl}-1H-imidazole trifluoroacetate]
140 nM | COc1cc2c(cc1OCCCN1CCCC1)[nH]c1cc(CO)ncc12 [Compound 79, {8-methoxy-7-[3-(pyrrolidin-1-yl)propoxy]-5H-pyrido[4,3-b]indol-3-yl}methanol trifluoroacetate]
> 10000 nM | COc1cc2c(cc1OCCCN1CCCC1)[nH]c1cc(O)ncc12 [Compound 80, 8-methoxy-7-(3-(pyrrolidin-1-yl)propoxy)-5H-pyrido[4,3-b]indol-3-ol formate]
22 nM | COc1cc2c(cc1OCCCN1CCCC1)[nH]c1ccnc(-c3cn[nH]c3)c12 [Compound 81, 4-[8-methoxy-7-[3-(pyrrolidin-1-yl)propoxy]-5H-pyrido[4,3-b]indol-1-yl]-1H-pyrazole hydrochloride]
17 nM | CCN(CC)c1nccc2[nH]c3cc(OCCCN4CCCC4)c(OC)cc3c12 [Compound 85, N,N-diethyl-8-methoxy-7-[3-(pyrrolidin-1-yl)propoxy]-5H-pyrido[4,3-b]indol-1-amine bis formate]
180 nM | COc1cc2c(cc1OCCCN1CCCC1)[nH]c1c(Cl)cnc(N3CCCC3)c12 [Compound 86, 1-{4-chloro-8-methoxy-7-[3-(pyrrolidin-1-yl)propoxy]-5H-pyrido[4,3-b]indol-1-yl}pyrrolidine hydrochloride]
240 nM | COc1cc2c(cc1OCC1CCCNC1)[nH]c1ccncc12 (stereo not drawn) [Compound 87, 3-[({8-methoxy-5H-pyrido[4,3-b]indol-7-yl}oxy)methyl]piperidine hydrochloride]
51 nM | COc1cc2c(cc1OCCCN(C)C)[nH]c1ccnc(N3CCCC3)c12 [Compound 92, (3-{[8-methoxy-1-(pyrrolidin-1-yl)-5H-pyrido[4,3-b]indol-7-yl]oxy}propyl)dimethylamine hydrochloride]
61 nM | COc1cc2c(cc1OCCCN(C)C)[nH]c1ccnc(N(C)C)c12 [Compound 93, 7-[3-(dimethylamino)propoxy)-8-methoxy-N,N-dimethyl-5H-pyrido[4,3-b]indol-1-amine hydrochloride]
54 nM | COc1cc2c3cnccc3n(C)c2cc1OCCCN1CCCC1 [Compound 94, 1-[3-({8-methoxy-5-methyl-5H-pyrido[4,3-b]indol-7-yl}oxy)propyl]pyrrolidine hydrochloride]
560 nM | COc1cc2c(cc1OCCCN(C)C)[nH]c1ccnc(SC)c12 [Compound 95, (3-{[8-methoxy-1-(methylsulfanyl)-5H-pyrido[4,3-b]indol-7-yl]oxy}propyl)dimethylamine hydrochloride]
2800 nM | COc1cc2c(cc1OCCCN1CC3CC(C3)C1)[nH]c1ccncc12 [Compound 98, 3-[3-({8-methoxy-5H-pyrido[4,3-b]indol-7-yl}oxy)propyl]-3-azabicyclo[3.1.1]heptane hydrochloride]
